Laboratory results from patent publication US7799530B2, “Genetic polymorphisms associated with cardiovascular disorders and drug response, methods of detection and uses thereof” (Celera Corporation, priority 2005, dated 2010).

Experiments:
[1] = system: animal models and myocyte cultures; conditions: compared to other hydrophobic statins; cited from earlier work
[2] = system: recurrent myocardial infarction (RMI) in CARE patients; test: CARE trial: recurrent MI in pravastatin- vs placebo-treated patients stratified by SNP genotype; format: in vivo, human; conditions: for HR, on-trial MI, Unadjusted: placebo = ref 1.00; for HR, on-trial MI, Adjusted: placebo = ref 1.00, adjusted for age, smoking, hypertension, diabetes, BMI, LDL-C, HDL-C; for OR_dom, risk of RMI / OR_het, risk of RMI / OR_maj, risk of RMI / OR_min, risk of RMI / OR, risk of RMI: placebo- vs. pravastatin-treated patients; for Risk Reduction by Statin (Pravastatin vs. Placebo) OR: odds ratio of recurrent MI, pravastatin- vs placebo-treated, heterozygous carriers of hCV3054799 only
From the text: In order to identify genetic markers associated with acute coronary events (e.g. MI, stroke, unstable angina, congestive heart failure, etc.) or response to statin treatment for the prevention of coronary events, samples were genotyped in two clinical trials: the Cholesterol and Recurrent Events (CARE) study (a randomized multicentral double-blinded trial on secondary prevention of acute coronary events with pravastatin; Sacks et al., Am. J. Cardiol. 68: 1436-1446[1991]), and the West of Scotland Coronary Prevention Study (WOSCOPS) study (Shepherd et al., N Eng J Med 333 (20), pp. 1301-7, Nov. 16, 1995; Packard et al., N Eng J Med 343 (16), pp. 1148-55, Oct. 19, 2000).
A well-documented myocardial infarction (MI) was one of the enrollment criteria for entry into the CARE study. Patients were enrolled in the CARE trial from 80 participating study centers. […] Patients were randomized to receive either 40 mg of pravastatin once daily or a matching placebo. The primary endpoint of the trial was death from coronary heart disease and the median duration of follow-up was 5.0 years (range, 4.0 to 6.2 years). All individuals included in the study had signed informed consent forms and the study protocol was approved by the respective Institutional Review Boards (IRBs).
For genotyping SNPs in CARE patient samples, DNA was extracted from blood samples using conventional DNA extraction methods such as the QIAamp kit from Qiagen. Genotypes were obtained by a method similar to that described by Lannone (M. A. Lannone et al., Cytometry 39(2):131-140 [Feb. 1, 2000]; also described in section “SNP DETECTION REAGENTS,” supra). Briefly, target DNA was amplified by multiplex PCR, the amplified product was submitted to a multiplex oligo ligation assay (OLA), the specific ligated products were hybridized to unique universal “ZIP code” oligomer sequences covalently attached to Luminex xMAP® Multi-Analyte COOH Microspheres, and these hybridization products/microspheres were detected in a rapid automated multiplex system using the Luminex 100 instrument. Alternatively, allele specific primers were designed for detecting each SNP and genotypes were obtained on an ABI PRISM® 7900HT Sequence Detection PCR system (Applied Biosystems) by allele-specific PCR, similar to the method described by Germer et al (Germer S., Holland M. J., Higuchi R. 2000, Genome Res. 10: 258-266). […]
In analyzing the CARE patients, statistical analysis was performed with SAS version 9. Cox proportional hazard models (Wald tests) were used in CARE to assess the association of genotype with both the risk of incident MI in the placebo arm and the effect of on MI pravastatin compared to placebo in subgroups defined by genotypes. In analyzing the WOSCOPS patients, a conditional logistic regression model was used in WOSCOPS given that the controls had been previously matched to the cases. The column entitled “On-trial MI” lists the number of patients who suffered an RMI during the clinical trial period.
An additional 175 markers were analyzed in samples from the CARE study (secondary MI prevention trial). […] Of the cases, 150 received placebo treatment and 114 received pravastatin; of the controls, 1290 received placebo and 1359 received pravastatin.
The genotypes for each SNP were tested for association with RMI. This genotypic test of association (i.e., minor homozygote genotype vs. major, and heterozygote vs. major) was performed separately for placebo-treated patients and for all patients unstratified by treatment group, using the Fisher's exact method. […] The reliability of the OR for each particular SNP is confirmed by its respective 95% confidence interval (CI) and P value, also shown. From Table 14 one can see the association of several SNPs with MI risk when they are present in a Homozygous Minor genotype (association based on an OR>1, the lower limit of the 95% CI>1 and a P value <0.05). […]

[3] = marker hCV2741051, heterozygous
[4] = marker hCV2741051, major homozygous
[5] = marker hCV2741051, minor homozygous
[6] = marker hCV25745415, heterozygous
[7] = marker hCV25745415, major homozygous
[8] = marker hCV25745415, minor homozygous

For `CC[C@H](C)C(=O)O[C@H]1C[C@H](O)C=C2C=C[C@H](C)[C@H](CC[C@@H](O)C[C@@H](O)CC(=O)O)[C@H]21` [pravastatin], the myopathic potential [1] is listed as “low myopathic potential”, the “HR, on-trial MI, Unadjusted” value ([2]; KIF6 hCV3054799 AA) is listed as 0.86 and the “HR, on-trial MI, Adjusted” value ([2]; KIF6 hCV3054799 AA) is listed as 0.80. The “HR, on-trial MI, Unadjusted” value ([2]; KIF6 hCV3054799 GG + GA) was 0.63, the “HR, on-trial MI, Adjusted” value ([2]; KIF6 hCV3054799 GG + GA) was 0.63 and the “OR_dom, risk of RMI” value ([2]; marker hCV465412, Dominant) was 0.50. The “OR_het, risk of RMI” value ([2]; marker hCV465412, Heterozygous) was 0.47, the “OR_maj, risk of RMI” value ([2]; marker hCV465412, Major Homozygous) was 0.80 and the “OR_min, risk of RMI” value ([2]; marker hCV465412, Minor Homozygous) was 1.35. For the same compound, the “OR, risk of RMI” value ([2]; marker hCV881283, heterozygous) was 0.19, the “OR, risk of RMI” value ([2]; marker hCV881283, major homozygous) was 0.76 and the “OR, risk of RMI” value ([2]; marker hCV881283, minor homozygous) was 0.00. The “OR, risk of RMI” value ([2]; marker hCV1603656, heterozygous) was 0.33, the “OR, risk of RMI” value ([2]; marker hCV1603656, major homozygous) was 0.87 and the “OR, risk of RMI” value ([2]; marker hCV1603656, minor homozygous) was 0.00. The “OR_dom, risk of RMI” value ([2]; marker hCV2741051, Dominant) was 1.07, the “OR, risk of RMI” value [2, 3] was 1.02 and the “OR_het, risk of RMI” value [2, 3] was 1.02. The “OR, risk of RMI” value [2, 4] was 0.55, the “OR_maj, risk of RMI” value [2, 4] was 0.55 and the “OR, risk of RMI” value [2, 5] was 1.68. For the same compound, the “OR_min, risk of RMI” value [2, 5] was 1.68, the “OR_dom, risk of RMI” value ([2]; marker hCV3054799, Dominant) was 0.65 and the “OR_het, risk of RMI” value ([2]; marker hCV3054799, Heterozygous) was 0.57. The “OR_maj, risk of RMI” value ([2]; marker hCV3054799, Major Homozygous) was 0.98, the “OR_min, risk of RMI” value ([2]; marker hCV3054799, Minor Homozygous) was 1.00 and the “OR_dom, risk of RMI” value ([2]; marker hCV7514870, Dominant) was 0.69. The “OR_het, risk of RMI” value ([2]; marker hCV7514870, Heterozygous) was 0.83, the “OR_maj, risk of RMI” value ([2]; marker hCV7514870, Major Homozygous) was 0.80 and the “OR_min, risk of RMI” value ([2]; marker hCV7514870, Minor Homozygous) was 0.37. The “OR_dom, risk of RMI” value ([2]; marker hCV11450617, Dominant) was 0.62, the “OR_het, risk of RMI” value ([2]; marker hCV11450617, Heterozygous) was 0.61 and the “OR_maj, risk of RMI” value ([2]; marker hCV11450617, Major Homozygous) was 0.78. The “OR_min, risk of RMI” value ([2]; marker hCV11450617, Minor Homozygous) was 0.68, the “OR, risk of RMI” value ([2]; marker hCV12107274, heterozygous) was 0.78 and the “OR, risk of RMI” value ([2]; marker hCV12107274, major homozygous) was 0.55. For the same compound, the “OR, risk of RMI” value ([2]; marker hCV12107274, minor homozygous) was 1.75, the “OR, risk of RMI” value ([2]; marker hCV15965459, heterozygous) was 0.35 and the “OR, risk of RMI” value ([2]; marker hCV15965459, major homozygous) was 0.82. For the same compound, the “OR, risk of RMI” value ([2]; marker hCV15965459, minor homozygous) was 0.95, the “OR_dom, risk of RMI” value ([2]; marker hCV15973230, Dominant) was 0.91 and the “OR_het, risk of RMI” value ([2]; marker hCV15973230, Heterozygous) was 0.91. For the same compound, the “OR_maj, risk of RMI” value ([2]; marker hCV15973230, Major Homozygous) was 0.60, the “OR_min, risk of RMI” value ([2]; marker hCV15973230, Minor Homozygous) was 0.71 and the “OR, risk of RMI” value ([2]; marker hCV15974589, heterozygous) was 0.67. The “OR, risk of RMI” value ([2]; marker hCV15974589, major homozygous) was 0.43, the “OR, risk of RMI” value ([2]; marker hCV15974589, minor homozygous) was 1.51 and the “OR, risk of RMI” value ([2]; marker hCV16054991, heterozygous) was 0.53. For the same compound, the “OR, risk of RMI” value ([2]; marker hCV16054991, major homozygous) was 0.88, the “OR, risk of RMI” value ([2]; marker hCV16054991, minor homozygous) was 0.43 and the “OR, risk of RMI” value ([2]; marker hCV25472673, heterozygous) was 0.61. For the same compound, the “OR, risk of RMI” value ([2]; marker hCV25472673, major homozygous) was 1.13, the “OR, risk of RMI” value ([2]; marker hCV25472673, minor homozygous) was 0.49 and the “OR, risk of RMI” value ([2]; marker hCV25623506, heterozygous) was 3.29. The “OR, risk of RMI” value ([2]; marker hCV25623506, major homozygous) was 0.65, the “OR, risk of RMI” value ([2]; marker hCV25623506, minor homozygous) was 0.00 and the “OR_dom, risk of RMI” value ([2]; marker hCV25745415, Dominant) was 0.92. For the same compound, the “OR, risk of RMI” value [2, 6] was 0.73, the “OR_het, risk of RMI” value [2, 6] was 0.73 and the “OR, risk of RMI” value [2, 7] was 0.56. For the same compound, the “OR_maj, risk of RMI” value [2, 7] was 0.56, the “OR, risk of RMI” value [2, 8] was 5.87 and the “OR_min, risk of RMI” value [2, 8] was 5.87. The “OR, risk of RMI” value ([2]; marker hCV25749177, heterozygous) was 0.74, the “OR, risk of RMI” value ([2]; marker hCV25749177, major homozygous) was 0.57 and the “OR, risk of RMI” value ([2]; marker hCV25749177, minor homozygous) was 2.81. For the same compound, the “OR_dom, risk of RMI” value ([2]; marker hCV25963691, Dominant) was 0.64, the “OR_het, risk of RMI” value ([2]; marker hCV25963691, Heterozygous) was 0.62 and the “OR_maj, risk of RMI” value ([2]; marker hCV25963691, Major Homozygous) was 0.71. For the same compound, the “OR_min, risk of RMI” value ([2]; marker hCV25963691, Minor Homozygous) was 0.72, the “Risk Reduction by Statin (Pravastatin vs. Placebo) OR” value [2] was “approximately 0.5” and the “Risk Reduction by Statin (Pravastatin vs. Placebo) OR” value ([2]; listed as Pravastatin) was 0.54.
